Values after ≈ are worked out from the molar mass of the structure shown. Read-outs that look alike come from different tables or passages of the source.
Assays:
[1] = molecular target: T1, hA3AR (Homo sapiens, UniProt P0DMS8); conditions: modulator 0.1 μM; cited from earlier work
T1 sequence (P0DMS8 1-318): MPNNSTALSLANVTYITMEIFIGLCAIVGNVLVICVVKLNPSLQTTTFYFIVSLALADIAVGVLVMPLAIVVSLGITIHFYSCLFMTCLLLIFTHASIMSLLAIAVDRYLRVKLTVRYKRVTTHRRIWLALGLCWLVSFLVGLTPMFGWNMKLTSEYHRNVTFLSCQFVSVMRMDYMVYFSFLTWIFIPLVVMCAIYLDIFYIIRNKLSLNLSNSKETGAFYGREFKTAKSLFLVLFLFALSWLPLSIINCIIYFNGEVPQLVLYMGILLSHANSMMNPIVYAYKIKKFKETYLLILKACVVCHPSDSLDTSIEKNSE

[2] = molecular target: T1, hA3AR; conditions: for enhancement of agonist efficacy at 0.1 μM: modulator 0.1 μM; for effect on agonist 52 potency: modulator 1 μM (30–34: 0.1 and 1.0 μM), compared to control
[3] = molecular target: T1, hA3AR; conditions: modulator 10 μM; 100 μM 51 added; control 26%
[4] = molecular target: T2, hA2B AR (Homo sapiens, UniProt P29275); experiment: Orthosteric antagonist radioligand binding; conditions: concentrations as high as 10 μM
T2 sequence (P29275 1-332): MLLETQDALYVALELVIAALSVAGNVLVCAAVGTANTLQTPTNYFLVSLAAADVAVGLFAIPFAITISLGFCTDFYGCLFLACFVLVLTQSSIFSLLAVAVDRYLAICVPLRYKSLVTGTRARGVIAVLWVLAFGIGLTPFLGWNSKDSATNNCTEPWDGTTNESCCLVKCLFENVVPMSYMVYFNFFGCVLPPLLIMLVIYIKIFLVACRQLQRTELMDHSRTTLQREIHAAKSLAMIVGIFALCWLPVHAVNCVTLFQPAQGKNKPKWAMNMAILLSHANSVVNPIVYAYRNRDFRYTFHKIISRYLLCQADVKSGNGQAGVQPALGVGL

[5] = molecular target: T3, hA1 AR (Homo sapiens, UniProt P30542); experiment: Orthosteric antagonist radioligand binding; conditions: concentrations as high as 10 μM
T3 sequence (P30542 1-326): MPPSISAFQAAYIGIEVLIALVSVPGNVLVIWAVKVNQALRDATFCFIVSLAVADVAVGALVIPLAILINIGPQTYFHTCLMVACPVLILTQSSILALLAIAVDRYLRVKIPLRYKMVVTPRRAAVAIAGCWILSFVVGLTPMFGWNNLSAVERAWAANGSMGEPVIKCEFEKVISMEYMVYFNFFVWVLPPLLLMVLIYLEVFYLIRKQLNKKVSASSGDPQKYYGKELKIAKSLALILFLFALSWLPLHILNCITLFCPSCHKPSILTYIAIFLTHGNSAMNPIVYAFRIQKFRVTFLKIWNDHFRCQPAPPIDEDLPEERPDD

[6] = molecular target: hA2A AR (Homo sapiens, UniProt P29274); experiment: Orthosteric antagonist radioligand binding; conditions: concentrations as high as 10 μM
[7] = system: Caco-2 cells; experiment: Caco-2 cell permeability assay; assay type: in vitro ADME, human
[8] = pION aqueous solubility pH 7.4; assay type: physicochemical; conditions: pION buffer
[9] = Pharmacokinetics in fasted Wistar rats; assay type: in vivo; conditions: rat
[10] = molecular target: CYP2C9 (Homo sapiens, UniProt P11712); experiment: CYP inhibition
[11] = Plasma protein binding, human; conditions: pH 7.4

Chain of CYP2C9 (P11712 whole entry): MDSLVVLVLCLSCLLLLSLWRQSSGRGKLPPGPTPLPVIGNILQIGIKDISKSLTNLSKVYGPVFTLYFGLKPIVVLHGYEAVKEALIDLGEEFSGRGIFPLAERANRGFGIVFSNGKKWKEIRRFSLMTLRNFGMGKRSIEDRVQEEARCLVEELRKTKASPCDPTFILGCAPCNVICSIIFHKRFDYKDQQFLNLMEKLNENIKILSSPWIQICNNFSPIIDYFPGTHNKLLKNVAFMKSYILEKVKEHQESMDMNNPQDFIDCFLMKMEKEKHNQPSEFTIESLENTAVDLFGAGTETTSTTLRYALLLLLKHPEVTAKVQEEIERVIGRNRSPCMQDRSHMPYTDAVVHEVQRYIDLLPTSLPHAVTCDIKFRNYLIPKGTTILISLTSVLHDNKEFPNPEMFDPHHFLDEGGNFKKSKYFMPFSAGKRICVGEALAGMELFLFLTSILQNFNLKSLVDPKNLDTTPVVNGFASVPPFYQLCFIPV
Chain of hA2A AR (P29274 whole entry): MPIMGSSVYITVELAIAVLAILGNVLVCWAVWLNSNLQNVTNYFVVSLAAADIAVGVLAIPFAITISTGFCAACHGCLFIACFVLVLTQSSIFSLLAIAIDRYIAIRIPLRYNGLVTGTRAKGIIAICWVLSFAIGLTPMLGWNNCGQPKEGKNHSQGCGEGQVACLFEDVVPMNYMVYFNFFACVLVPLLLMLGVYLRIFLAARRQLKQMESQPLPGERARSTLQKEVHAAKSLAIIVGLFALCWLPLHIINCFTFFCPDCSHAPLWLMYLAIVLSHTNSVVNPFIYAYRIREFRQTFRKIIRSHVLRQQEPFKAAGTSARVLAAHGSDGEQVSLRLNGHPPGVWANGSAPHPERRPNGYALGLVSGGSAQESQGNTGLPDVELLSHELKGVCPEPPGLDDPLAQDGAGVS

Q: With `Clc1ccc(Nc2nc3ccccc3c3nc(C4CCCCC4)[nH]c23)cc1Cl` [Compound 7, N-(3,4-dichloro-phenyl)-2-cyclohexyl-1H-imidazo[4,5-c]quinolin-4-amine] as the compound, how does the “enhancement of agonist efficacy at 0.1 μM” value (“enhancement” for short) [1] read?
A: The value was “significantly enhanced agonist efficacy”.

Q: Which “enhancement” value [1] does the source give for `Clc1ccc(Nc2nc3ccccc3c3[nH]c(C4CCCCCC4)nc23)cc1Cl` [Compound 8] here?
A: Its value is “significantly enhanced agonist efficacy”.

Q: Which results are given for `Clc1ccc(Nc2nc3ccccc3c3[nH]c(C45CC6CC(CC(C6)C4)C5)nc23)cc1Cl` [Compound 12b]?
A: enhancement of agonist efficacy at 0.1 μM [2]: significantly enhanced agonist efficacy; fold increase of agonist efficacy ([2]; modulator 1 μM): approximately 2 fold; fold improvement of agonist potency ([2]; modulator 1.0 μM, P = 0.058): ~4 fold

Q: Which “radioligand [125I]50 remaining bound 60 min after initiation of dissociation” value [3] does the source give for `FC(F)(F)CCC(CCC(F)(F)F)c1nc2c(Nc3ccc(Cl)c(Cl)c3)nc3ccccc3c2[nH]1` [Compound 15, 2-(1,1,1,7,7,7-Hexafluoroheptan-4-yl)-N-(3,4-dichlorophenyl)-1H-imidazo[4,5-c]quinolin-4-amine] here?
A: Its value is “did not slow agonist dissociation”.

Q: What about the “effect on agonist 52 potency” value [2] of the same compound?
A: Its value is “did not influence agonist potency”.

Q: For `FC(F)(F)[C@H]1CC[C@H](c2nc3c(Nc4ccc(Cl)c(Cl)c4)nc4ccccc4c3[nH]2)CC1` [Compound 16, 2-(4-(Trifluoromethyl)cyclohexyl)-N-(3,4-dichlorophenyl)-1H-imidazo[4,5-c]quinolin-4-amine], which “enhancement” value [2] is on record?
A: Its value is “significantly enhanced agonist efficacy”.

Q: What about the “effect on agonist 52 potency” value [2] of the same compound?
A: The value was “did not influence agonist potency”.

Q: Which “inhibition of orthosteric antagonist binding at hA2B AR” value [4] does the source give for `Clc1ccc(Nc2nc3ccccc3c3[nH]c(C4CC4)nc23)cc1Cl` [Compound 17, 2-(Cyclopropyl)-N-(3,4-dichlorophenyl)-1H-imidazo[4,5-c]quinolin-4-amine] here?
A: Its value is “did not inhibit orthosteric antagonist binding”.

Q: What about the “inhibition of orthosteric antagonist binding at hA1 AR” value [5] of the same compound?
A: Its value is “did not inhibit orthosteric antagonist binding”.

Q: What about the “inhibition of orthosteric antagonist binding at hA2A AR” value [6] of the same compound?
A: The value was “did not inhibit orthosteric antagonist binding”.

Q: For `Clc1ccc(Nc2nc3ccccc3c3[nH]c(C4CCC=CCC4)nc23)cc1Cl` [Compound 18, 2-(Cyclohept-4-en-1-yl)-N-(3,4-dichlorophenyl)-1H-imidazo[4,5-c]quinolin-4-amine], which “Caco-2 permeability (Papp) apical to basolateral (A to B)” value ([7]; 10 μM) is on record?
A: Its value is “no measurable permeability”.

Q: And the “Caco-2 permeability (Papp) basolateral to apical (B to A)” value ([7]; 10 μM)?
A: The value was “no measurable permeability”.

Q: What about the Caco-2 permeability classification ([7]; A-B and B-A) of the same compound?
A: The Caco-2 permeability classification was “low A-B and B-A permeability”.

Q: And the solubility at 18 h [8]?
A: The solubility at 18 h was 0.92 µM (≈ 0.389 µg/mL).

Q: What about the Cmax ([9]; male, Wistar (RccHan:WIST), plasma, po, 10 mg/kg) of the same compound?
A: Its Cmax is 4.2 µM.

Q: What about the “clearance rate from plasma” value ([9]; 1 mg/kg p.o.) of the same compound?
A: Its value is 7.45 mL/min/kg.

Q: What about the “clearance rate from plasma” value ([9]; 3 mg/kg p.o.) of the same compound?
A: The value was 26.33 mL/min/kg.

Q: And the “clearance rate from plasma” value ([9]; 10 mg/kg p.o.)?
A: Its value is 16.2 mL/min/kg.

Q: With `Clc1ccc(Nc2nc3ccccc3c3[nH]c(C45CCC(CC4)C5)nc23)cc1Cl` [Compound 25, 2-(Bicyclo[2.2.1]heptan-1-yl)-N-(3,4-dichlorophenyl)-1H-imidazo[4,5-c]quinolin-4-amine] as the compound, how does the “fold decrease in agonist potency compared to control” value ([2]; modulator 1 μM, P = 0.0257) read?
A: Its value is 4 fold.

Q: Which “effect on agonist 52 potency” value [2] does the source give for `Clc1ccc(Nc2nc3ccccc3c3[nH]c(C45CCCC(CCC4)C5)nc23)cc1Cl` [Compound 26, 2-(Bicyclo[3.3.1]nonan-1-yl)-N-(3,4-dichlorophenyl)-1H-imidazo[4,5-c]quinolin-4-amine] here?
A: The value was “neither 12b nor 26 significantly improved agonist potency”.

Q: For `Clc1ccc(Nc2nc3ccccc3c3[nH]c([C@@H]4C[C@@H]5CCC[C@@H](C5)C4)nc23)cc1Cl` [Compound 27, 2-((1R,3s,5S)-Bicyclo[3.3.1]nonan-3-yl)-N-(3,4-dichlorophenyl)-1H-imidazo[4,5-c]quinolin-4-amine], which “enhancement” value [2] is on record?
A: Its value is “significantly enhanced agonist efficacy”.

Q: What does the source list for `Clc1ccc(Nc2nc3ccccc3c3[nH]c([C@@H]4CC[C@@H]5C[C@@H]5CC4)nc23)cc1Cl` [Compound 28, 2-((1R,4r,7S)-bicyclo[5.1.0]octan-4-yl)-N-(3,4-dichlorophenyl)-1H-imidazo[4,5-c]quinolin-4-amine]?
A: radioligand [125I]50 remaining bound 60 min after initiation of dissociation [3]: slowed agonist radioligand dissociation; fold increase of agonist efficacy ([2]; modulator 1 μM): approximately 2 fold

Q: Which results are given for `Clc1ccc(Nc2nc3ccccc3c3[nH]c(C4CC5C=CC4CC5)nc23)cc1Cl` [Compound 29, 2-((1R,2R,4R)- and (1S,2S,4S))-Bicyclo[2.2.2]oct-5-en-2-yl)-N-(3,4-dichlorophenyl)-1H-imidazo[4,5-c]quinolin-4-amine]?
A: effect on agonist EC50 over modulator concentrations ([2]; concentration-dependent): significantly decreasing the potency in a concentration-dependent manner; effect on agonist 52 potency [2]: did not influence agonist potency

Q: With `Clc1ccc(COC(Cn2ccnc2)c2ccc(Cl)cc2Cl)c(Cl)c1` (centres unmarked) [Miconazole] as the compound, how does the IC50 [10] read?
A: The IC50 was 380 nM.

Q: Which fraction unbound at 5 h, 10 μM [11] does the source give for `CC(=O)CC(c1ccccc1)c1c(O)c2ccccc2oc1=O` (centres unmarked) [Warfarin] here?
A: Its fraction unbound at 5 h, 10 μM is 0.037.

Source: PMC10354740 (Journal of medicinal chemistry, 2022)
